Tests used:
[1] = target: Hsp70 (Homo sapiens, UniProt P0DMV8); test: malachite green ATPase assay, 8-point dose dependence; format: biochemical
[2] = target: Hsc70 (Homo sapiens, UniProt P11142); test: […]-1H HSQC-TROSY NMR titration, […]-labelled apo-Hsc70; format: binding

Row | SMILES | IC50 [1] [µM] | Kd [2] [µM]
1 | CNc1ccc2nc3ccc(N)cc3[s+]c2c1 [AC, azure C] | 11 | –
2 | CN(C)c1ccc2nc3ccc(=[N+](C)C)cc-3sc2c1 [MB, methylene blue] | 83 | ~1
3 | O=c1c(O)c(-c2cc(O)c(O)c(O)c2)oc2cc(O)cc(O)c12 [MY, myricetin] | 12 | –

— publication PMC2775811 (The Journal of neuroscience : the official journal of the …, 2009)
